Assay: head-to-tail lactamisation of linear tetramer (amino acid/peptoid hybrids) with HATU (1.5 equiv), DIPEA (8 equiv); dropwise addition of linear precursor to HATU solution
Settings: the molecule shown is the open-chain precursor; 12-membered ring; DMF; 5.0 mM; 21.0 °C; 30.0 h; 10 steps
Compound `C=CCN(CC(=O)N[C@@H](Cc1ccccc1)C(=O)O)C(=O)[C@H]1CCCN1C(=O)CNC1CCCCC1` [H-(N-cyclohexyl)Gly-D-Pro-(N-allyl)Gly-Phe-OH] has a ring closure, overall yield of 50%.
`CCCC[C@H](NC(=O)[C@H]1CCCN1C(=O)[C@@H](N)Cc1ccccc1)C(=O)N[C@@H](Cc1c[nH]c2ccccc12)C(=O)O` [H-Phe-D-Pro-Nle-Trp-OH] showed a ring closure, overall yield of 38%.
In the case of `CC[C@H](C)[C@H](N)C(=O)N1CCC[C@@H]1C(=O)N[C@@H](COC(C)(C)C)C(=O)N[C@@H](Cc1ccccc1)C(=O)O` [H-Ile-D-Pro-Ser(tBu)-Phe-OH], the ring closure, overall yield is reported as 46%.
For `CCCC[C@H](NC(=O)[C@H]1CCCN1C(=O)[C@@H](N)[C@@H](C)CC)C(=O)N[C@@H](Cc1c[nH]c2ccccc12)C(=O)O` [H-Ile-D-Pro-Nle-Trp-OH], the ring closure, overall yield was 22%.
With `CCCC[C@H](NC(=O)[C@H]1CCCN1C(=O)[C@@H](N)CC(C)C)C(=O)N[C@@H](Cc1c[nH]c2ccccc12)C(=O)O` [H-Leu-D-Pro-Nle-Trp-OH] the ring closure, overall yield was 36%.
`CCCC[C@H](NC(=O)[C@H]1CCCN1C(=O)[C@@H](N)CC(C)C)C(=O)N[C@@H](Cc1ccccc1)C(=O)O` [H-Leu-D-Pro-Nle-Phe-OH] showed a ring closure, overall yield of 56%.

From PMC8348019
